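Protocol summary: plate cells (96-well), add compound at 5 concentrations, incubate 48 h, interpolate endpoints linearly. Here, GI50 denotes the concentration required for 50% inhibition of growth. TGI marks complete inhibition of growth.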
What was measured:
Experiment in all cases: NCI tumour cell line growth inhibition, 48 h
NCI-H460 lung = test system: NCI-H460 lung
HOP-92 NSCLC = test system: HOP-92 NSCLC
K-562 leukemia = test system: K-562 leukemia
COLO 205 colon = test system: COLO 205 colon
SK-MEL-2 melanoma = test system: SK-MEL-2 melanoma
TK-10 renal = test system: TK-10 renal
SF-268 CNS = test system: SF-268 CNS
SF-539 CNS = test system: SF-539 CNS
EKVX NSCLC = test system: EKVX NSCLC
CAKI-1 renal = test system: CAKI-1 renal

| Structure (SMILES) | TGI (NCI-H460 lung) | TGI (HOP-92 NSCLC) | TGI (K-562 leukemia) | TGI (COLO 205 colon) | TGI (SK-MEL-2 melanoma) | TGI (TK-10 renal) | TGI (SF-268 CNS) | TGI (SF-539 CNS) | TGI (EKVX NSCLC) | TGI (CAKI-1 renal) | GI50 (NCI-H460 lung) | GI50 (HOP-92 NSCLC) | GI50 (K-562 leukemia) | GI50 (SK-MEL-2 melanoma) | GI50 (TK-10 renal) | GI50 (SF-268 CNS) | GI50 (SF-539 CNS) | GI50 (EKVX NSCLC) | GI50 (CAKI-1 renal) | GI50 (COLO 205 colon) |
| --- | --- | --- | --- | --- | --- | --- | --- | --- | --- | --- | --- | --- | --- | --- | --- | --- | --- | --- | --- | --- |
| C[Si](C)(C)CN1C(=O)c2ccccc2C1(O)c1ccccc1 (stereo not given) | > 100 µM | 97.9 µM | > 100 µM | > 100 µM | > 100 µM | > 100 µM | > 100 µM | > 100 µM | > 100 µM | > 91.6 µM |  |  |  |  |  |  |  |  |  |  |
| Cn1cc(-c2csc(-c3cn(C)c4ccc(F)cc34)n2)c2cnccc21 | 3.71 µM | 3.26 µM | 3.78 µM |  | 3.38 µM | 2.98 µM | 3.79 µM | 3.35 µM | 3.7 µM | 3.19 µM | 1.97 µM | 1.64 µM | 1.7 µM | 1.79 µM | 1.56 µM | 1.93 µM | 1.85 µM | 1.87 µM | 1.77 µM |  |
| O=C1c2ccccc2C(=O)c2c(NCCN=Cc3ccccc3O)cccc21 | 6.91 µM | 0.0676 µM | > 45.1 µM | 3.82 µM | 11.3 µM | 6.17 µM | 14.9 µM | 13.3 µM | 5.44 µM | 2.8 µM | 2.18 µM |  | 2.47 µM | 4.42 µM | 1.99 µM | 2.7 µM | 2.96 µM | 1.79 µM | 0.434 µM | 1.41 µM |
| CC1COS(=O)O1 (stereo not given) | > 100 µM | > 100 µM | > 100 µM | > 100 µM | > 100 µM | > 100 µM | > 100 µM | > 100 µM | > 100 µM | > 100 µM |  |  |  |  |  |  |  |  |  |  |
| CCOc1ccc(N=Cc2c3ccccc3nc3ccccc23)cc1 | > 100 µM | > 100 µM | > 100 µM | > 100 µM | > 100 µM | > 100 µM | > 100 µM | > 100 µM | > 100 µM | > 100 µM |  |  |  |  |  |  |  |  |  |  |
| c1ccc(NCCSc2nc3ccccc3s2)cc1 | > 100 µM | > 100 µM | > 100 µM | 41.8 µM | > 100 µM | 77.4 µM | > 100 µM |  | > 100 µM | > 100 µM |  |  |  |  |  |  |  |  |  |  |
| CN1C(NNC(=O)c2cccnc2)=NS(=O)(=O)c2cc(Cl)ccc21 | > 100 µM | > 100 µM | > 100 µM | > 100 µM | > 100 µM | > 100 µM | > 100 µM | > 100 µM | > 100 µM | > 100 µM | > 100 µM | > 100 µM | > 100 µM | > 100 µM | > 100 µM | > 100 µM | > 100 µM | > 100 µM | > 100 µM | > 100 µM |
| O=C1c2ccc3c4ccccc4n(-c4ccccc4)c3c2C(=O)N1c1ccc(Cl)cc1 | > 100 µM | 75 µM | > 100 µM | > 100 µM | > 100 µM | > 100 µM | > 100 µM | > 100 µM | > 100 µM | > 100 µM |  |  |  |  |  |  |  |  |  |  |
| Nc1ccc(C2=N/C(=C\c3cccc(N)c3)C(=O)O2)cc1 |  | > 100 µM | > 100 µM | > 100 µM | > 100 µM | > 100 µM | > 100 µM | > 100 µM | > 100 µM | > 100 µM |  |  |  |  |  |  |  |  |  |  |

— PubChem BioAssay (NCI)
